Source: publication PMC7351026, “Serum Half-Lives for Short- and Long-Chain Perfluoroalkyl Acids after Ceasing Exposure from Drinking Water Contaminated by Firefighting Foam” (Environmental Health Perspectives, 2020)
Read-outs that look alike come from different tables or passages of the source.

What was measured:
[1] = Background serum PFAS levels in reference population from Karlshamn; type: in vivo, human; settings: reference group from Karlshamn without PFAS contamination in drinking water, N=58, sampled 2016
Description: For comparison with Swedish general background PFAS serum levels, we referred to the PFAS levels observed in a reference population from Karlshamn, a municipality in southern Sweden without PFAS contamination in the municipal drinking water. In 2016, 226 individuals were sampled. Fifty-nine individuals were randomly selected for analyzing other short-chain PFAS than the legacy ones, using the same modified method as for the airport employees. Fifty-eight individuals within the same age range as the airport employees (i.e., >22 years of age ) were included in the comparison. For a detailed description of this population see Li et al. ([2018]).

[2] = PFAS levels in urine samples of airport employees, specific-gravity adjusted (LC/MS/MS); type: in vivo, human; settings: for Specific gravity adjusted urine level, median (range): second to fifth samplings, 17 airport employees
Experimental: Only one employee provided a single urine sample. […] All employees provided written informed consent.
The samples were thawed 1–2 h, then mixed by vortex shaker and manual turning. […] For the urine samples, 50μL urine was mixed with 25μL of methanol and 25μL of a 50% acetonitrile solution containing isotopically labeled internal standards (see Table S1). Then samples were shaken vigorously for 30 min and centrifuged at 3,000×g for 10 min at room temperature.
Aliquots of 20μL of the sample were analyzed using LC/MS/MS. […] The analysis was performed in negative ion mode. The ion source temperature was at 350°C.
Urinary PFAS concentrations were specific-gravity adjusted. The ratio of urine and serum concentration for each PFAS (urine/serum ratio) at each sampling was calculated based on PFAS concentrations in paired serum and urine samples from 17 employees. Then the personal average urine/serum ratio was calculated using the mean value of repeated samplings for each employee.

[3] = parameters: method as in Olsen et al. 2009; settings: occupationally exposed workers; ref Olsen et al. 2009; cited from earlier work
[4] = parameters: method as in Zhang et al. 2015; settings: ref Zhang et al. 2015, cited from earlier work
[5] = 2nd sampling (October 2018), count 17
[6] = 3rd sampling (November, 2018), count 16
[7] = 4th sampling (December 2018), count 14
[8] = 5th sampling (January 2019), count 12

Molecule | Specific gravity adjusted urinary level, 25 percentile [2, 5] | Specific gravity adjusted urinary level, 75 percentile [2, 5] | Specific gravity adjusted urinary level, Max [2, 5] | Specific gravity adjusted urinary level, Median [2, 5] | Specific gravity adjusted urinary level, Min [2, 5] | Specific gravity adjusted urinary level, 25 percentile [2, 6] | Specific gravity adjusted urinary level, 75 percentile [2, 6] | Specific gravity adjusted urinary level, Max [2, 6] [ng/mL] | Specific gravity adjusted urinary level, Median [2, 6] | Specific gravity adjusted urinary level, Min [2, 6] | Specific gravity adjusted urinary level, 25 percentile [2, 7] | Specific gravity adjusted urinary level, 75 percentile [2, 7] | Specific gravity adjusted urinary level, Max [2, 7] [ng/mL] | Specific gravity adjusted urinary level, Median [2, 7] | Specific gravity adjusted urinary level, Min [2, 7] | Specific gravity adjusted urinary level, 25 percentile [2, 8] | Specific gravity adjusted urinary level, 75 percentile [2, 8] | Specific gravity adjusted urinary level, Max [2, 8] [ng/mL] | Specific gravity adjusted urinary level, Median [2, 8] | Specific gravity adjusted urinary level, Min [2, 8] | further results
O=S(=O)(O)C(F)(C(F)(F)F)C(F)(F)C(F)(F)C(F)(F)C(F)(F)C(F)(F)C(F)(F)F (stereo not shown) [1m-PFOS, perfluoro-1-methylheptanesulfonate] |  |  |  |  |  |  |  |  |  |  |  |  |  |  |  |  |  |  |  |  | PFAS serum level, median (range) [1]: 0.18 ( <LOD –0.59) ng/mL
O=S(=O)(O)C(F)(F)C(F)(F)C(F)(F)C(F)(F)C(F)(F)C(F)(F)C(F)(F)C(F)(F)F [L-PFOS, linear perfluorooctane sulfonic acid] | < LOD | 0.01 ng/mL | 0.08 ng/mL | < LOD | < LOD | < LOD | 0.02 ng/mL | 0.03 | 0.01 ng/mL | < LOD | < LOD | 0.02 ng/mL | 0.05 | < LOD | < LOD | < LOD | 0.01 ng/mL | 0.04 | < LOD | < LOD | PFAS serum level, median (range) [1]: 3.0 (0.30–9.8) ng/mL
O=S(=O)(O)C(F)(F)C(F)(F)C(F)(F)C(F)(F)F [PFBS, perfluorobutane sulfonic acid] |  |  |  |  |  |  |  |  |  |  |  |  |  |  |  |  |  |  |  |  | Serum level, average [3]: 397 ng/mL
O=C(O)C(F)(F)C(F)(F)C(F)(F)C(F)(F)C(F)(F)C(F)(F)F [PFHpA, perfluoroheptanoic acid] | 0.02 ng/mL | 0.04 ng/mL | 0.05 ng/mL | 0.03 ng/mL | < LOD | 0.01 ng/mL | 0.03 ng/mL | 0.08 | 0.02 ng/mL | < LOD | 0.01 ng/mL | 0.03 ng/mL | 0.06 | 0.02 ng/mL | < LOD | < LOD | 0.03 ng/mL | 0.06 | 0.02 ng/mL | < LOD | Specific gravity adjusted urine level, median (range) [2]: 0.025 ( <LOD –0.080) ng/mL
O=S(=O)(O)C(F)(F)C(F)(F)C(F)(F)C(F)(F)C(F)(F)C(F)(F)F [PFHxS, perfluorohexane sulfonic acid] | 0.06 ng/mL | 0.13 ng/mL | 0.28 ng/mL | 0.09 ng/mL | 0.03 ng/mL | 0.05 ng/mL | 0.13 ng/mL | 0.26 | 0.07 ng/mL | 0.03 ng/mL | 0.05 ng/mL | 0.17 ng/mL | 0.73 | 0.12 ng/mL | 0.04 ng/mL | 0.07 ng/mL | 0.11 ng/mL | 0.31 | 0.08 ng/mL | 0.06 ng/mL | Specific gravity adjusted urine level, median (range) [2]: 0.092 (0.025–0.73) ng/mL; PFAS serum level, median (range) [1]: 0.59 ( <LOD –1.2) ng/mL
O=C(O)C(F)(F)C(F)(F)C(F)(F)C(F)(F)C(F)(F)C(F)(F)C(F)(F)F [PFOA, perfluorooctanoic acid] | 0.02 ng/mL | 0.04 ng/mL | 0.07 ng/mL | 0.03 ng/mL | 0.01 ng/mL | 0.02 ng/mL | 0.04 ng/mL | 0.07 | 0.03 ng/mL | 0.01 ng/mL | 0.02 ng/mL | 0.05 ng/mL | 0.13 | 0.04 ng/mL | 0.01 ng/mL | 0.03 ng/mL | 0.04 ng/mL | 0.07 | 0.03 ng/mL | 0.02 ng/mL | Specific gravity adjusted urine level, median (range) [2]: 0.031 (0.010–0.13) ng/mL; concentration at 2016 calendar year of sampling ([1]; human, serum, read-out: PFAS serum level, median (range)): 1.5 ng/mL; Urine/serum ratio ([4]; nonpregnant women): 0.0028; Urine/serum ratio ([4]; pregnant women): 0.0011
O=S(=O)(O)C(F)(F)C(F)(F)C(F)(F)C(F)(F)C(F)(F)F [PFPeS, perfluoropentane sulfonic acid] | 0.06 ng/mL | 0.08 ng/mL | 0.11 ng/mL | 0.07 ng/mL | 0.04 ng/mL | 0.05 ng/mL | 0.09 ng/mL | 0.12 | 0.07 ng/mL | 0.02 ng/mL | 0.07 ng/mL | 0.08 ng/mL | 0.12 | 0.08 ng/mL | 0.03 ng/mL | 0.06 ng/mL | 0.08 ng/mL | 0.09 | 0.07 ng/mL | 0.05 ng/mL | Specific gravity adjusted urine level, median (range) [2]: 0.072 (0.021–0.12) ng/mL
Perfluoro-2/6-methylheptanesulfonate [2/6m-PFOS] | < LOD | < LOD | < LOD | < LOD | < LOD | < LOD | < LOD | 0.04 | < LOD | < LOD | < LOD | < LOD | 1.60 | < LOD | < LOD | < LOD | < LOD | 0.03 | < LOD | < LOD | PFAS serum level, median (range) [1]: 0.46 ( <LOD –1.4) ng/mL
perfluoro-3/4/5-methylheptanesulfonate [3/4/5m-PFOS] |  |  |  |  |  |  |  |  |  |  |  |  |  |  |  |  |  |  |  |  | PFAS serum level, median (range) [1]: 0.79 (0.10–2.2) ng/mL
